Test results published in the supplement of paper PMC10307832.

What was measured:
Experiment in all cases: relative viability (nuclei count vs DMSO), 5 days (fraction); higher = more cells survive
[1] = compound: C1COCCN1CC2=CC(=O)C(=CO2)OCCCCCSC3=C4C=CC(=CC4=NC=C3)C(F)(F)F [EHT 1864] + Nc1nc2[nH]cc(CCc3ccc(C(=O)N[C@@H](CCC(=O)O)C(=O)O)cc3)c2c(=O)[nH]1 [Pemetrexed] (partner 0.2 µM)
Method in brief: (§1)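 A single step with final 0.05% Triton X-100, 1% formaldehyde and 1 ug/ml Hoechst fixed the cells and stained nuclei 5 days after treatment. Lung cancer cell lines in 1536-well plates had been treated by pin tool the day after seeding with one drug alone or a fixed anchor-drug dose plus five library-drug doses (not always all listed) in √10 steps, and nuclei were counted on 4× images. Relative viability is the ratio of nuclei in treated wells to nuclei in vehicle wells, taken as the median of duplicate plates.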

[2] = compound: C1COCCN1CC2=CC(=O)C(=CO2)OCCCCCSC3=C4C=CC(=CC4=NC=C3)C(F)(F)F [EHT 1864] + Cc1nc(NC(=O)N2CCC[C@H]2C(N)=O)sc1-c1ccnc(C(C)(C)C(F)(F)F)c1 [Alpelisib] (partner 2 µM)
Method in brief: as §1

[3] = compound: C1COCCN1CC2=CC(=O)C(=CO2)OCCCCCSC3=C4C=CC(=CC4=NC=C3)C(F)(F)F [EHT 1864] + CC(=O)c1c(C)c2cnc(Nc3ccc(N4CCNCC4)cn3)nc2n(C2CCCC2)c1=O [Palbociclib] (partner 0.5 µM)
Method in brief: as §1

[4] = compound: C1COCCN1CC2=CC(=O)C(=CO2)OCCCCCSC3=C4C=CC(=CC4=NC=C3)C(F)(F)F [EHT 1864] + O=C(c1cc(Cc2n[nH]c(=O)c3ccccc23)ccc1F)N1CCN(C(=O)C2CC2)CC1 [Olaparib] (partner 8 µM)
Method in brief: as §1

Cell Line	relative viability ([1]; first compound 0.04 µM)	relative viability ([1]; first compound 0.1265 µM)	relative viability ([1]; first compound 0.4 µM)	relative viability ([1]; first compound 1.265 µM)	relative viability ([1]; first compound 4 µM)	relative viability ([2]; first compound 0.04 µM)	relative viability ([2]; first compound 0.1265 µM)	relative viability ([2]; first compound 0.4 µM)	relative viability ([2]; first compound 1.265 µM)	relative viability ([2]; first compound 4 µM)	relative viability ([3]; first compound 0.04 µM)	relative viability ([3]; first compound 0.1265 µM)	relative viability ([3]; first compound 0.4 µM)	relative viability ([3]; first compound 1.265 µM)	relative viability ([3]; first compound 4 µM)	relative viability ([4]; first compound 0.04 µM)	relative viability ([4]; first compound 0.1265 µM)	relative viability ([4]; first compound 0.4 µM)	relative viability ([4]; first compound 1.265 µM)	relative viability ([4]; first compound 4 µM)
201T	0.346	0.326	0.351	0.266	0.291	1.02	1.08	0.977	0.982	1.01	0.345	0.36	0.353	0.307	0.356	0.821	0.794	0.856	0.73	0.81
A549	–	–	–	–	–	0.637	0.735	0.694	0.805	0.712	–	–	–	–	–	0.302	0.299	0.368	0.246	0.428
A-427	0.979	1.01	0.952	0.931	0.935	1.15	1.08	1.04	1.11	1.13	0.547	0.485	0.535	0.545	0.494	0.768	0.734	0.778	0.678	0.713
ABC-1	–	–	–	–	–	0.665	1	1.05	0.92	1.07	0.629	0.631	0.692	0.687	0.577	1.24	0.695	0.861	0.629	0.762
BEN	0.763	0.678	0.908	0.697	0.715	0.941	0.825	0.92	0.938	1.1	0.468	0.493	0.472	0.435	0.47	1.06	0.982	0.836	0.914	1
CAL-12T	1.08	1.12	1.09	1.18	0.964	1.23	1.14	1.08	1.25	1.05	0.409	0.357	0.459	0.518	0.443	0.702	0.642	0.721	0.706	0.611
COR-L23	0.197	0.193	0.196	0.194	0.214	0.832	0.878	0.815	0.855	0.76	0.336	0.216	0.336	0.283	0.272	0.35	0.359	0.314	0.392	0.213
COR-L 105	1.03	1.06	0.966	1.01	0.984	0.906	1.06	1.03	0.969	0.841	0.362	0.417	0.411	0.414	0.41	0.792	0.692	0.777	0.648	0.624
Calu-6	–	–	–	–	–	0.983	0.932	0.948	1.01	0.904	–	–	–	–	–	0.615	0.563	0.594	0.507	0.502
ChaGo-K-1	0.261	0.27	0.25	0.264	0.256	–	–	–	–	–	0.946	0.904	0.951	0.852	0.911	0.403	0.442	0.443	0.406	0.349
EKVX	0.362	0.381	0.404	0.34	0.495	0.894	0.836	0.875	0.871	0.795	0.351	0.401	0.441	0.292	0.374	0.741	0.823	0.806	0.83	0.788
EMC-BAC-2	0.454	0.421	0.491	0.439	0.432	0.694	0.682	0.718	0.705	0.768	0.528	0.491	0.52	0.492	0.518	0.616	0.467	0.436	0.464	0.458
EPLC-272H	0.317	0.332	0.317	0.365	0.356	1.08	0.933	0.977	1.07	0.999	0.356	0.353	0.317	0.33	0.352	0.741	0.672	0.788	0.642	0.611
H3255	0.532	0.603	0.576	0.572	0.561	0.652	0.516	0.675	0.718	0.711	0.298	0.322	0.306	0.31	0.312	0.56	0.537	0.573	0.55	0.569
HARA	0.27	–	0.267	0.3	0.234	0.762	0.758	0.843	0.814	0.857	0.269	0.226	0.215	0.26	0.291	0.872	–	0.967	0.876	0.761
HCC-15	0.224	–	0.24	0.226	0.218	0.902	0.797	0.903	0.823	0.842	0.76	–	0.78	0.682	0.72	0.717	–	0.678	0.685	0.706
HCC-44	0.603	0.594	0.618	0.674	0.674	0.801	0.703	0.751	0.695	0.857	0.985	0.999	0.94	0.899	0.918	1.04	0.896	1.01	0.92	1.02
HCC-78	0.868	0.866	0.823	0.889	0.937	0.29	0.31	0.328	0.367	0.491	0.414	0.568	0.46	0.493	0.478	0.781	0.887	0.773	0.868	0.92
HCC-366	0.159	0.145	0.136	0.15	0.152	0.426	–	0.492	0.401	0.285	0.42	0.319	0.348	0.327	0.361	0.391	0.325	0.34	0.347	0.304

Cell Line	relative viability ([1]; first compound 0.04 µM)	relative viability ([1]; first compound 0.1265 µM)	relative viability ([1]; first compound 0.4 µM)	relative viability ([1]; first compound 1.265 µM)	relative viability ([1]; first compound 4 µM)	relative viability ([2]; first compound 0.04 µM)	relative viability ([2]; first compound 0.1265 µM)	relative viability ([2]; first compound 0.4 µM)	relative viability ([2]; first compound 1.265 µM)	relative viability ([2]; first compound 4 µM)	relative viability ([3]; first compound 0.04 µM)	relative viability ([3]; first compound 0.1265 µM)	relative viability ([3]; first compound 0.4 µM)	relative viability ([3]; first compound 1.265 µM)	relative viability ([3]; first compound 4 µM)	relative viability ([4]; first compound 0.04 µM)	relative viability ([4]; first compound 0.1265 µM)	relative viability ([4]; first compound 0.4 µM)	relative viability ([4]; first compound 1.265 µM)	relative viability ([4]; first compound 4 µM)
HCC-827	0.279	0.27	0.227	0.3	0.235	0.981	0.887	0.958	0.953	0.891	0.57	0.498	0.508	0.473	0.386	0.79	0.641	0.625	0.652	0.633
HOP-62	0.438	–	0.269	0.388	0.314	1.03	–	0.838	0.796	0.884	0.453	–	0.516	0.438	0.425	0.448	–	0.435	0.438	0.453
IA-LM	–	–	–	–	–	0.875	0.419	0.799	0.677	0.639	–	–	–	–	–	0.926	0.842	0.81	0.62	0.618
LC-2-ad	0.265	0.271	0.247	0.274	0.308	0.837	–	0.831	0.9	0.82	0.481	0.436	0.447	0.46	0.464	0.602	0.671	0.657	0.671	0.625
LCLC-97TM1	0.205	0.15	0.169	0.185	0.15	0.253	–	0.22	0.195	0.198	0.225	0.15	0.183	0.187	0.241	0.347	0.346	0.328	0.326	0.444
LCLC-103H	0.431	0.45	0.506	0.468	0.5	1.05	0.888	0.956	1.03	1.07	0.506	0.393	0.504	0.467	0.498	0.742	0.694	0.739	0.718	0.734
LK-2	0.305	–	0.259	0.288	0.25	1.19	0.972	1.07	1.14	0.499	0.67	–	0.523	0.639	0.588	0.518	0.608	0.608	0.551	0.68
LOU-NH91	0.347	0.382	0.396	0.421	0.391	0.739	0.7	0.793	0.736	0.624	0.512	0.524	0.53	0.495	0.589	0.917	0.858	0.911	0.949	0.885
LU99A	0.196	0.178	0.179	0.186	0.19	0.495	0.381	0.452	0.583	0.54	0.438	0.375	0.364	0.396	0.374	0.26	0.262	0.25	0.284	0.274
NCI-H522	1.29	0.75	0.977	1.16	1.18	–	–	–	–	–	1.11	1.02	0.948	1	1.05	0.719	0.66	0.63	0.666	0.734
NCI-H596	0.554	0.513	0.447	0.575	0.468	0.524	0.529	0.506	0.434	0.514	–	–	–	–	–	0.773	0.719	0.8	0.781	0.777
NCI-H727	–	–	–	–	–	0.623	0.593	0.524	–	0.567	0.663	0.642	0.626	0.595	0.653	1.07	0.75	0.459	0.529	0.524
NCI-H1299	–	–	–	–	–	0.973	0.974	0.983	1.05	1.08	–	–	–	–	–	0.96	0.939	0.964	0.913	0.893
NCI-H1563	0.682	0.709	0.742	0.626	0.74	0.853	1.03	1.04	0.96	0.805	–	–	–	–	–	–	–	–	–	–
NCI-H1648	0.827	–	0.673	0.655	0.726	–	–	–	–	–	0.261	–	0.269	0.258	0.278	0.765	–	0.759	0.769	0.984
NCI-H1650	0.384	0.327	0.331	0.36	0.358	–	–	–	–	–	0.375	0.31	0.273	0.378	0.277	0.722	0.63	0.776	0.845	0.682
NCI-H1703	–	–	–	–	–	0.323	0.319	0.399	0.373	0.366	–	–	–	–	–	0.396	–	0.461	0.277	0.291
NCI-H2342	0.603	0.704	0.788	0.709	0.742	–	–	–	–	–	0.487	0.485	0.505	0.554	0.551	0.402	0.409	0.474	0.39	0.451
